Data published in patent US6531453B1, “NKT cell activators containing α-glycosylceramides” (Kirin Beera Kabushiki Kaisha, priority 1997, dated 2003).

Tests used:
[1] = test system: mouse lymphoma YAC-1 cells; assay: Cytotoxic activity of spleen NKT cells against tumor cells (4 hour 51Cr-release) after i.v. administration to RAG-1KO/Vα14tg/Vβ8.2tg mice; format: in vivo; conditions: 100 μg/kg i.v., spleen taken 24 hours later, FIG. 1
Protocol: A vehicle (physiological saline containing 0.025% Polysolvate 20) or 100 μg/kg of KRN 7000 was intravenously administered to RAG-1KO/Vα14tg/Vβ8.2tg mice (bearing a large number of NKT cells but not B cells, T cells or NK cells in their lymphocyte fraction), and 24 hours later, the spleen was taken out from each mouse to prepare spleen cells by conventional methods. RAG-1KO/Vαl14tg/Vβ8.2tg mice were established by deletion of the RAG-1 gene and forcible expression of Vα14 and Vβ8.2 gene (Kawano T. et al., Science, 278, 1626-1629 (1997)). Thesemice are available from Masaru Taniguchi, School of Medicine, Chiba University. Cytotoxic activity of these spleen cells to mouse lymphoma YAC-1 cells was studied by the 4 hour-^51Cr-release method (Kobayashi, E. et al., Oncology Res., 7, 529 ([…])).

Vα24+ NKT cells = assay: Stimulation of Vα24+ NKT cell proliferation, autologous mixed leukocyte reaction with treated antigen-presenting cells; format: cell-based, human; conditions: antigen-presenting cells treated with 100 ng/ml, FIG. 9
Protocol: Peripheral blood mononuclear cells of a normal human were cultured for 4 days in an AIM medium supplemented with 10% FCS with the addition of GM-CSF (400 U/ml), IL-4 (200 U/ml) and KRN 7000 (100 ng/ml) to prepare antigen-presenting cells.
An autologous mixed leukocyte reaction (MLR) was performed using these antigen-presenting cells as stimulator cells and autologous peripheral blood mononuclear cells as responder cells. After incubation for 10 days, IL-2 (5 U/ml) was added, incubation was continued for another 4 days, and the cells were harvested. Next, CD4, CD8 double negative cells were recovered from these harvested cells and subjected to the phenotype analysis. The phenotypic analysis was expressed by fluorescence intensity of labeled antibodies against cells having various phenotypes.
The cells were cultured using IL-2 (5 U/ml) to stimulate the proliferation of Vα24^+ NKT cells, which were used as responder cells in the following autologous mixed leukocyte reaction. Autologous peripheral blood mononuclear cells were cultured for 4 days with the addition of GM-CSF +IL-4 and 100 ng/ml of KRN 7000, AGL-583 (β-galactosylceramide, β-GalCer) or 0.1% DMSO (vehicle) to prepare antigen-presenting cells. An autologous mixed leukocyte reaction was carried out using these antigen-presenting cells as stimulator cells. […]

Vα14+ NKT cells = assay: Stimulation of spleen NKT cell proliferation in C57BL/6 mice (3-color FACS analysis); format: in vivo, mouse
Protocol: A vehicle (physiological saline solution containing 0.5% Polysolvate 20) or 1, 10 or 100 ng/kg of KRN 7000 was intravenously administered to C57BL/6 mice (Japan SLC, Inc.), and the spleen of individual mice was taken out after 24 hours to prepare spleen cells by conventional methods. These spleen cells were incubated in a plastic dish for 30 minutes to prepare nonadherent cells. By removing B cells in this nonadherent cells, a lymphocyte fraction was prepared. T cells, NK cells, NKT cells and Vα14^+ NKT cells in this fraction were analyzed by the 3-color FACS analysis using the FITC-labeled anti-TCR αβ monoclonal antibody (Pharmingen), cychrome-labeled anti-NK1.1 monoclonal antibody (Pharmingen) and PE-labeled anti-Vα14 monoclonal antibody (FIG. 2). The anti-Vα14 monoclonal antibody was obtained by implanting anti-Vα14 monoclonal antibody producing hybridomas (CMS-1; available from Masaru Taniguchi et al, School of Medicine, Chiba University) in nude mice and recovering ascites from the animals to purify the antibody. In FIGS. 2A and 2B, the numbers of NK1.1 cells, TCRαβ cells and […] in the lymphocyte fraction were expressed as fluorescence intensity of the labeled antibodies against these cells.

MRL lpr/lpr mice [2] = assay: Suppression of lymph node swelling in MRL lpr/lpr mice; format: in vivo, mouse; conditions: 100 μg/kg i.p. twice a week from the age of 11 weeks
Protocol: Ten animals per group of female MRL lpr/lpr mice (Sakamoto, A. Clin. Immunol., 28, 1558 (1966)), were used for the following experiment. During the observation of 21 MRL mice purchased at the age of 6 weeks, swelling of the axillary lymph nodes was recognized in one mouse at the age of 10 weeks. Accordingly, the other 20 mice were randomly divided into 2 groups. A vehicle (a physiological saline solution containing 0.025% Polysolvate 20) or KRN 7000 (100 μg/kg) was intraperitoneally administered twice a week (on Tuesday and Friday) to the abovementioned 2 groups of animals starting from the age of 11 weeks. Axillary and inguinal lymph nodes were examined twice a week to observe the progress of lymph node swelling with time. The lymph nodes were scored into 4 grades, i.e., −(0), +(1), ++(2) and +++(3) as a function of size. The total scores of both right and left sides of the axillary lymph node (A) or inguinal lymph node (B) were expressed as lymph node swelling indexes as shown in FIG. 3.

[3] = test system: 4% DSS-induced mouse colitis (CDF1 mice); assay: Suppression of 4% DSS-induced mouse colitis; format: in vivo; conditions: KRN 7000 100 μg/kg i.p. days 1, 5, 9, IL-12 1 μg/mouse i.p. days 1, 3, 5, 7, 9
Protocol: Ten animals per group of CDF1 mice (6 weeks of age, females) (Japan SLC Inc.) were used for the following experiment. Day 0 was defined as the day when a 4% DSS solution (4% (w/v) dextran sodium sulfate (DSS) dissolved in water) was first provided as drinking water. The animals were divided into 3 groups, i.e., a group to which 100 μg/kg of KRN 7000 were intraperitoneally administered on days 1, 5, and 9, a group to which 1 μg/mouse of IL-12 was intraperitoneally administered on days 1, 3, 5, 7 and 9, and an untreated (control) group. Body weight was measured and survival or death of the animals were observed daily. Changes in body weight and survival rate are shown in FIG. 5A and 5B, respectively.

MRL lpr/lpr mice [4] = assay: Survival period of MRL lpr/lpr mice; format: in vivo, mouse; conditions: 100 μg/kg i.p. twice a week from the age of 5 weeks, 10 animals per group; all vehicle mice died within 250 days, FIG. 4
Protocol: Ten animals per group of female MRL lpr/lpr mice were used for the following experiment. MLR mice purchased at the age of 4 weeks were randomly divided into 2 groups (10 animals per group). A vehicle (a physiological saline solution containing 0.025% Polysolvate 20) or KRN 7000 (100 μg/kg) was intraperitoneally administered twice a week (on Tuesday and Friday) to the animals starting from the age of 5 weeks. Survival of the animals was observed every day.

[5] = spleen, i.v., 24 hours, FIG. 2C

Compound: CCCCCCCCCCCCCCCCCCCCCCCCCC(=O)N[C@@H](CO[C@H]1O[C@H](CO)[C@H](O)[C@H](O)[C@H]1O)[C@H](O)[C@H](O)CCCCCCCCCCCCCC [KRN 7000, (2S,3S,4R)-1-(α-D-galactopyranosyloxy)-2-hexacosanoylamino-3,4-octadecanediol]
- cytotoxic activity against YAC-1 cells of spleen cells vs vehicle-administered mice [1]: significantly higher
- effect of treated antigen presenting cells on Vα24+ NKT cell proliferation ([3H]thymidine uptake) (Vα24+ NKT cells): marked stimulative effect
- rate of NK1.1+ TCRαβ cells in the spleen lymphocyte fraction vs vehicle (Vα14+ NKT cells; 100 ng/kg i.v., 24 hours, FIG. 2A): marked increase
- rate of Vβ14+ cells in NK1.1+ TCRβα+ cells vs vehicle (Vα14+ NKT cells; 100 ng/kg i.v., 24 hours, FIG. 2B): increase
- numbers of NK cells in the spleen lymphocyte fractions (Vα14+ NKT cells; 10 or 100 ng/kg i.v., 24 hours, FIG. 2C): equal to those from the vehicle-administered mice
- increase in numbers of Vα14+ NKT cells in the spleen lymphocyte fraction vs vehicle (Vα14+ NKT cells; i.v., 24 hours, FIG. 2C): more than four times
- increase in numbers of Vα14− NKT cells in the spleen lymphocyte fraction vs vehicle (Vα14+ NKT cells; i.v., 24 hours, data not shown): more than three times
- numbers of Vα14+ cells in the liver (Vα14+ NKT cells; liver, data not shown): marked increase
- numbers of Vα14− NKT cells in the liver (Vα14+ NKT cells; liver, data not shown): marked increase
- increase in the numbers of T cells vs vehicle-administered mice (Vα14+ NKT cells; [5]): about 2 fold
- increase in the numbers of lymphocyte fractions vs vehicle-administered mice (Vα14+ NKT cells; [5]): about 2 fold
- swelling in the axillary lymph nodes with aging (MRL lpr/lpr mice [2]; FIG. 3A): clearly suppressed
- swelling in the inguinal lymph nodes with aging (MRL lpr/lpr mice [2]; FIG. 3B): clearly suppressed
- time of weight loss as compared with the control group ([3]; FIG. 5A): at a later period
- survival period as compared with the control group ([3]; FIG. 5B): significantly longer
- mice surviving at 350 days after the start of the administration (MRL lpr/lpr mice [4]): three mice
